Experimental data published in US20240209014A1, “NOVEL SPINOSYN PRODRUGS” (Acies Bio d.o.o., priority 2021, published 2024).
Where two headings read alike, the source gives them in different places.

Legend:
[1] = test system: honey bees (Apis melifera carnica, Pollman 1879); experiment: Single dose acute oral toxicity test on adult worker honey bees; type: in vivo
Procedure: Toxicity of the compounds of this invention towards honey bees (Apis melifera carnica, Pollman 1879) was assessed in comparison with commercially available samples of spinosad (LGC (Dr. Ehrenstorfer); Product code: DRE-C16972830) and the naturally produced compound butenyl spinosyn alpha 1. Solutions of spinosyn compounds were prepared in 100 mM ammonium acetate, pH=5, and later diluted in 50% (500 g/L) sucrose solution in water to final concentrations. Two final concentrations were used for each compound, 7.76 μmol/L and 15.53 μmol/L.
Single dose acute oral toxicity tests were conducted on adult worker bees according to previously described standard methods (Medrzycki at el., (2013)). Each compound and condition were tested in two parallels. Briefly, each parallel experiment consisted of 5 cages with 20 honey bees per cage. […] After uptake of the solutions honey bees were supplied with standard 50% sucrose solution and observed at 24 h and 48 h and the number of dead and live bees was estimated.
Ammonium acetate solution with pH 5 was used as the negative control.

[2] = Stability of J1A, J1B and J7 at different pH values (LC-MS); type: physicochemical
Procedure: Stability of compounds J1A, J1B and J7 was evaluated at different pH values. Differential stability/conversion to the active ingredient is expected to result in condition-specific activation and thereby to higher specificity towards target pests.
Stock solutions of the compounds were prepared at concentration of 0.1 mol/L. 10 μL of the stock solutions were transferred to 0.75 ml of the buffer solutions with pH values of 4, 5, 9 and 11. The resulting solutions were incubated for 10 minutes and 3 and 24 h. After specified times samples were analyzed using LC-MS. The compounds J1A, J1B, J7 and the active compound butenyl spinosyn were quantified. It is seen that the three compounds are converted to the active form preferably in alkaline conditions.

[3] = test system: larvae of Ostrinia nubilialis (development stage L1); experiment: Insecticide efficacy, corn leaf dip, Henderson-Tilton method; type: in vivo; settings: for % efficacy (Henderson-Tilton): Ostrinia, foliar
Procedure: Insecticide activities of the compounds of this invention were assessed in comparison with commercially available samples of spinosad (LGC (Dr. Ehrenstorfer); Product code: DRE-C16972830) and spinetoram (LGC (Dr. Ehrenstorfer); Product code: DRE-C16972770). Solutions of spinosyn compounds were prepared by adding 0.05% Tween 80, lowering pH to 5.95 and sonicating. Two concentrations of each compound were used, 0.1 μg/ml and 0.3 μg/mL, with each condition tested in four parallels.
Freshly collected corn leaves were dipped into the prepared solutions. After dipping leaves were left to dry at room temperature for 1 hour. Each dry leaf was then infested with 4 larvae of Ostrinia nubilialis (development stage L1), and the experimental device was incubated at 21° C.-23° C. for 24 h in order to optimize insect development. At three timings post infestation (1 day, 3 days and 6 days), the insecticide efficacy is evaluated from the number of living larvae using the Henderson-Tilton method. Untreated control was integrated for normalization and validation of larvae health.

Kinetic solubility assay = type: physicochemical; settings: 25 °C, kinetic from dmso stock, dose conc 200 μM, 25±2° C.
Procedure: Solubility of the compounds of the invention was assessed using kinetic solubility assay and compared to solubility of butenyl spinosyn. Stock solutions of spinosyn compounds were prepared in DMSO at mM concentration). 10 uL of the stock solutions were added into 490 of in K.S. 5.4 buffer of pH 5.4 (80 mM phosphoric acid, acetic acid, boric acid buffer, adjusted the pH to pH 5.4 with 1 N HCl and 1N NaOH) or K.S. 7.4 buffer with pH of 7.4 (80 mM phosphoric acid, acetic acid, boric acid buffer, adjusted the pH to pH 7.4 with 1 N HCl and 1N NaOH). The solutions were incubated with shaking at room […] temperature (25±2° C.) for 24 hours. 200 uL of each solution were then transferred into a new MultiScreen filter plate (Membrane of polycarbonate) and filtered by millipore vacuum manifold, and the filtrate was collected. The concentrtions of tested compounds in the filtered samples were analyzed by HPLC analysis calibrated by a standard curve generated by injection of 3 standard solutions of the relevant compound with concentrations of 1, 20, 200 μM.

Structure (SMILES): CC/C=C/[C@H]1CCC[C@H](OC2CCC([N+](C)(C)COC(=O)C(C)(C)C)C(C)O2)[C@@H](C)C(=O)C2=C[C@@H]3[C@@H](C=C[C@@H]4C[C@@H](OC5OC(C)C(OC)C(OC)C5OC)C[C@@H]34)[C@@H]2CC(=O)O1 (some centres unmarked) [Compound J1A]
- % of surviving honey bees ([1]; single oral dose 0.078 nmol/bee, 24 h after application): 95%
- % of surviving honey bees ([1]; single oral dose 0.078 nmol/bee, 48 h after application): 92%
- % of surviving honey bees ([1]; single oral dose 0.155 nmol/bee, 24 h after application): 89%
- % of surviving honey bees ([1]; single oral dose 0.155 nmol/bee, 48 h after application): 75%
- BuSPN Area % (active butenyl spinosyn released) ([2]; buffer pH 4, 0.16 h): 0.0%
- Compound (J1A/J1B/J7) Area % remaining ([2]; buffer pH 4, 0.16 h): 5.7%
- BuSPN Area % (active butenyl spinosyn released) ([2]; buffer pH 4, 3 h): 0.0%
- Compound (J1A/J1B/J7) Area % remaining ([2]; buffer pH 4, 3 h): 2.0%
- BuSPN Area % (active butenyl spinosyn released) ([2]; buffer pH 4, 24 h): 0.0%
- Compound (J1A/J1B/J7) Area % remaining ([2]; buffer pH 4, 24 h): 0.1%
- BuSPN Area % (active butenyl spinosyn released) ([2]; buffer pH 5, 0.16 h): 0.1%
- Compound (J1A/J1B/J7) Area % remaining ([2]; buffer pH 5, 0.16 h): 99.4%
- BuSPN Area % (active butenyl spinosyn released) ([2]; buffer pH 5, 3 h): 0.1%
- Compound (J1A/J1B/J7) Area % remaining ([2]; buffer pH 5, 3 h): 99.3%
- BuSPN Area % (active butenyl spinosyn released) ([2]; buffer pH 5, 24 h): 1.7%
- Compound (J1A/J1B/J7) Area % remaining ([2]; buffer pH 5, 24 h): 97.4%
- BuSPN Area % (active butenyl spinosyn released) ([2]; buffer pH 9, 0.16 h): 32.6%
- Compound (J1A/J1B/J7) Area % remaining ([2]; buffer pH 9, 0.16 h): 66.4%
- BuSPN Area % (active butenyl spinosyn released) ([2]; buffer pH 9, 3 h): 71.8%
- Compound (J1A/J1B/J7) Area % remaining ([2]; buffer pH 9, 3 h): 26.6%
- BuSPN Area % (active butenyl spinosyn released) ([2]; buffer pH 9, 24 h): 46.6%
- Compound (J1A/J1B/J7) Area % remaining ([2]; buffer pH 9, 24 h): 0.0%
- BuSPN Area % (active butenyl spinosyn released) ([2]; buffer pH 11, 0.16 h): 80.7%
- Compound (J1A/J1B/J7) Area % remaining ([2]; buffer pH 11, 0.16 h): 18.4%
- BuSPN Area % (active butenyl spinosyn released) ([2]; buffer pH 11, 3 h): 98.0%
- Compound (J1A/J1B/J7) Area % remaining ([2]; buffer pH 11, 3 h): 0.5%
- insecticidal activity on Ostrinia nubilialis larvae (in words) ([3]; 0.1 and 0.3 μg/mL, leaf dip): extremely potent insecticidal activity
- % efficacy (Henderson-Tilton) ([3]; 24 h, read-out: % Efficacy, dose 0.1 μg a.i./ml, 1 day post infestation): 2%
- % efficacy (Henderson-Tilton) ([3]; 24 h, read-out: % Efficacy, dose 0.3 μg a.i./ml, 1 day post infestation): 0%
- % efficacy (Henderson-Tilton) ([3]; 72 h, read-out: % Efficacy, dose 0.1 μg a.i./ml, 3 days post infestation): 44%
- % efficacy (Henderson-Tilton) ([3]; 72 h, read-out: % Efficacy, dose 0.3 μg a.i./ml, 3 days post infestation): 63%
- % efficacy (Henderson-Tilton) ([3]; 144 h, read-out: % Efficacy, dose 0.1 μg a.i./ml, 6 days post infestation): 89%
- % efficacy (Henderson-Tilton) ([3]; 144 h, read-out: % Efficacy, dose 0.3 μg a.i./ml, 6 days post infestation): 100%
- solubility kinetic at 24 h (Kinetic solubility assay; pH 5.4, aqueous buffer, K.S. 5.4 buffer, read-out: Kinetic Solubility pH = 5.4): 189 µM
- solubility kinetic at 24 h (Kinetic solubility assay; pH 7.4, aqueous buffer, K.S. 7.4 buffer, read-out: Kinetic Solubility pH = 7.4): 143 µM
